Experimental data as given in US10144745B2, “Chimeric compounds targeting proteins, compositions, methods, and uses thereof” (BioTheryX, Inc., priority 2016, dated 2018).

How the values were obtained:
[1] = system: Daudi cells; assay: Daudi Cell Proliferation (WST-1 cell viability); type: cell-based; details: Homo sapiens, 96 h; Daudi cells (Burkitt lymphoma cell line), treated for 4 days, viability by WST-1 relative to vehicle control
Description: Daudi cells, a Burkitt lymphoma cell line, was treated for 4 days with the indicated compound (10 nM, 100 nM, 1 μM, 10 μM, and 100 μM) or vehicle (DMSO), and cell viability was determined using the WST-1 tetrazolium reagent (Roche), and results were expressed as the percentage viability relative to the vehicle control, which was set at 100%. Based on resulting data, an IC50 was calculated for each compound.
IC50 values less than or equal to 2 μM are represented by “A;” IC50 values greater than 2 μM and less than or equal to 30 μM are represented by “B;” and IC50 values greater than 30 μM are represented by “C.”

[2] = target: T1, FGFR (G697C) (Homo sapiens, UniProt P22607, G697C); assay: Kinase Inhibition Assay (kinase-tagged phage / affinity bead competition binding, qPCR); details: Compounds were tested at 500 nM; read-out: FGFR (G697C) (Percent Control)
T1 construct: made in house
T1 sequence (P22607 23-806 G697C): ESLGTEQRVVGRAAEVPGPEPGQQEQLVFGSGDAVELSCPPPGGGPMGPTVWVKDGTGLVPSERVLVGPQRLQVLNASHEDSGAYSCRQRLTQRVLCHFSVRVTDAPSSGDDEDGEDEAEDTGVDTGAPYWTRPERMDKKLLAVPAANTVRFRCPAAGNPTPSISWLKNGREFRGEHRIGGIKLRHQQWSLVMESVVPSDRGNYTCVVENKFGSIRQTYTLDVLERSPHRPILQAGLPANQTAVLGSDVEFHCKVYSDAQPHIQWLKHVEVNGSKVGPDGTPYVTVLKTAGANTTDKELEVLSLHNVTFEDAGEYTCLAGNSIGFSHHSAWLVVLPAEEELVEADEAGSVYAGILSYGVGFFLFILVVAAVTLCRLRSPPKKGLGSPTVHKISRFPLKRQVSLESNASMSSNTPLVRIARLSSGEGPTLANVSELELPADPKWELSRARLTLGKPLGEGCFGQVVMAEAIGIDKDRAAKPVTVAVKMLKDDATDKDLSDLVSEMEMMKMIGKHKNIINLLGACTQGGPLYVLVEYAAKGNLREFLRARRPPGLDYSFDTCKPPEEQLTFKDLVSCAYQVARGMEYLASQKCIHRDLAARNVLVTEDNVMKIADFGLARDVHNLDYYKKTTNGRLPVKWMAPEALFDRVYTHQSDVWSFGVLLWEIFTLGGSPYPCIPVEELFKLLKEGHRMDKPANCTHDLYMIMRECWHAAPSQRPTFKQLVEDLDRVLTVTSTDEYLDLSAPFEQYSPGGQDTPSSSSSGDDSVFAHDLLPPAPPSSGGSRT
Description: (§1) Kinase-tagged T7 phage strains were grown in parallel in 24-well blocks in an E. coli host derived from the BL21 strain. E. coli were grown to log-phase and infected with T7 phage from a frozen stock (multiplicity of infection=0.4) and incubated with shaking at 32° C. until lysis (90-150 minutes). The lysates were centrifuged (6,000×g) and filtered (0.2 μm) to remove cell debris. The remaining kinases were produced in HEK-293 cells and subsequently tagged with DNA for qPCR detection. Streptavidin-coated magnetic beads were treated with biotinylated small molecule ligands for 30 minutes at room temperature to generate affinity resins for kinase assays. The liganded beads were blocked with excess biotin and washed with blocking buffer (SeaBlock (Pierce), 1% BSA, 0.05% Tween 20, 1 mM DTT) to remove unbound ligand and to reduce non-specific phage binding.
Binding reactions were assembled by combining kinases, liganded affinity beads, and test compounds in 1× binding buffer (20% SeaBlock, 0.17×PBS, 0.05 Tween 20, 6 mM DTT). Test compounds were prepared as 40× stocks in 100% DMSO and directly diluted into the assay. All reactions were performed in polypropylene 384-well plates in a final volume of 0.02 mL. The assay plates were incubated at room temperature with shaking for 1 hour and the affinity beads were washed with wash buffer (1×PBS, 0.05% Tween 20). […]

[3] = target: T2, FES (Homo sapiens, UniProt P07332); assay: as above; details: Compounds were tested at 500 nM; read-out: FES (Percent Control)
T2 construct: made in house
T2 sequence (P07332 whole entry, species assumed): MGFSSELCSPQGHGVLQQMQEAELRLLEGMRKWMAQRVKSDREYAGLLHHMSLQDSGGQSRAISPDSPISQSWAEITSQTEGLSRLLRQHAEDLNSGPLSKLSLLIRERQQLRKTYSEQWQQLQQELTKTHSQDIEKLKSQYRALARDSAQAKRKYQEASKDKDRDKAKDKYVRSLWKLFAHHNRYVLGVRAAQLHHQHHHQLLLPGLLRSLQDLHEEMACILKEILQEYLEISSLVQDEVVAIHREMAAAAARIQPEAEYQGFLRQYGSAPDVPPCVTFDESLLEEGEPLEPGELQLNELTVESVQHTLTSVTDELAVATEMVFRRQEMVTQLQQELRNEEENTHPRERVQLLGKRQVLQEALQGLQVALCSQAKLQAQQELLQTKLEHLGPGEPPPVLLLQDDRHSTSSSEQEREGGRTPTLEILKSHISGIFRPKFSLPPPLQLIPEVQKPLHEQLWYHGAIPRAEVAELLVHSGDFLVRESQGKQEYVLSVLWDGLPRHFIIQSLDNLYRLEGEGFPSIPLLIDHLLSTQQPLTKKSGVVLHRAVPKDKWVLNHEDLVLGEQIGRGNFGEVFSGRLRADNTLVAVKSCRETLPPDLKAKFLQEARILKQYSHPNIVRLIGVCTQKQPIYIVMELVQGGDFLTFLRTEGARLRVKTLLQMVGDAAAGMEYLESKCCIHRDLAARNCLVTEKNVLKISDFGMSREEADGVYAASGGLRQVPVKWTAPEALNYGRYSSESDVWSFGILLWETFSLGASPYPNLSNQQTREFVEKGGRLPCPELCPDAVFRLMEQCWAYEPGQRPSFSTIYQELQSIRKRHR
Description: as §1, with “Streptavidin-coated magnetic beads were treated with biotinylated small molecule ligands for 30 minutes at room temperature to generate affinity resins for kinase assays.” left out
Test compounds were prepared as 40× stocks in 100% DMSO and directly diluted into the assay. […] The kinase concentration in the eluates was measured by qPCR.

Nc1cccc2c1CN(C1CCC(=O)NC1=O)C2=O (stereo not shown) [Lenalidomide, reference compound]
IC50 [1]: > 30 µM

CC(C)c1cccc2c1CN([C@H]1CCCC(=O)NC1=O)C2=O [Compound 45, (S)-3-(4-Isopropyl-1-oxoisoindolin-2-yl)azepane-2,7-dione]
IC50 [1]: > 30 µM

Cc1cnc(Nc2ccc(OCCN3CCCC3)cc2)nc1Nc1cccc(S(=O)(=O)NC(C)(C)C)c1 [Fedratinib, reference compound]
remaining binding at 0.5 µM [2]: 57%

O=C1CCC[C@H](N2Cc3c(cccc3C(F)F)C2=O)C(=O)N1 [Compound 42, (S)-3-(4-(Difluoromethyl)-1-oxoisoindolin-2-yl)azepane-2,7-dione]
IC50 [1]: 2 to 30 µM

C=C(C)c1cccc2c1CN([C@H]1CCCC(=O)NC1=O)C2=O [Compound 43, (S)-3-(1-Oxo-4-(prop-1-en-2-yl)isoindolin-2-yl)azepane-2,7-dione]
IC50 [1]: ≤ 2 µM

Cc1cnc(Nc2ccc(OCCCNCC(=O)Nc3cccc4c3CN([C@H]3CCCC(=O)NC3=O)C4=O)cc2)nc1Nc1cccc(S(=O)(=O)NC(C)(C)C)c1 [Compound 66, (S)-2-((3-(4-((4-((3-(N-(tert-Butyl)sulfamoyl)phenyl)amino)-5-methylpyrimidin-2-yl)amino)phenoxy)propyl)amino)-N-(2-(2,7-dioxoazepan-3-yl)-1-oxoisoindolin-4-yl)acetamide]
remaining binding at 0.5 µM [3]: 15%
remaining binding at 0.5 µM [2]: 4.8%
